According to patent US10308899B2, “Liquid automatic dish washing detergent compositions” (Novozymes A/S, priority 2013, dated 2019):
Residue numbers refer to the chain shown, from its start. Primed or numbered codes have the meaning given here. The star is where a group is joined. aldehyde′ = not defined here; Cbz = O=C(OCc1ccccc1)*; Moc = COC(=O)*

Legend:
[1] = target: Protease4 (subtilisin BPN′) (Bacillus amyloliquefaciens, UniProt P00782, Y324L); test: Storage stability of Protease4 in liquid ADW detergent (residual protease activity, N,N-dimethylcasein hydrolysis); format: biochemical; conditions: Detergent A, Example 2
Excerpt: (§1) Chemicals used as buffers and substrates were commercial products of at least reagent grade. Protease1, Protease2, Protease3, and Protease4, as used in the examples below, are subtilisin proteases. Protease1 has the amino acid sequence shown in SEQ ID NO: 1 (subtilisin 309). Protease2 has the amino acid sequence shown in SEQ ID NO: 2 (variant of subtilisin 309). Protease3 has the amino acid sequence shown in SEQ ID NO: 3 (variant of subtilisin 309). Protease4 has the amino acid sequence shown in SEQ ID NO: 4 (subtilisin BPN′).
Various peptide aldehydes were produced, all with a purity >80%. The peptide aldehydes were dissolved in DMSO to a concentration of 10 mg/ml before use.
(§2) To detergent A from Example 1, the following amount of enzyme and different inhibitors (peptide aldehydes) were added, all samples normalized to 100 g of detergent. […] Three subtilisin proteases were used: Protease1, Protease2, and Protease4, all in concentration of 0.04 g active enzyme protein per gram of enzyme solution.
(§3) The detergents were placed in closed glasses at 37° C. for 2 weeks. Residual activity of protease was measured (by comparison to a reference stored at −18° C.) using standard enzyme analytical method (protease activity measured by hydrolysis of N,N-dimethylcasein at 40° C., pH=8.3).

[2] = logarithmic stability constant of the cation/chelator complex; ionic strength of 0.1 M, 25° C.; cited from earlier work
[3] = target: T1, Protease4 (subtilisin BPN′) (Artificial sequence); test: cell-based or functional assay
T1 chain: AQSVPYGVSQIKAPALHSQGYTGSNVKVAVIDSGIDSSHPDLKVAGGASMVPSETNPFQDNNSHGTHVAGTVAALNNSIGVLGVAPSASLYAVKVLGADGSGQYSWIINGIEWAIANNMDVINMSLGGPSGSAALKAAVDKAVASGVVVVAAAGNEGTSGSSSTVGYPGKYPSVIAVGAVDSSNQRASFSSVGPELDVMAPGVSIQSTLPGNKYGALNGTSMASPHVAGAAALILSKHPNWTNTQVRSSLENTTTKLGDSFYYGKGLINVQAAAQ

[4] = target: T2, Protease1 (subtilisin 309) (Lederbergia lenta, UniProt P29600); test: Storage stability of Protease1 in liquid ADW detergent (residual protease activity, N,N-dimethylcasein hydrolysis); format: biochemical; conditions: Protease1, no inhibitor, Detergent A, Example 2
T2 sequence (P29600 1-269): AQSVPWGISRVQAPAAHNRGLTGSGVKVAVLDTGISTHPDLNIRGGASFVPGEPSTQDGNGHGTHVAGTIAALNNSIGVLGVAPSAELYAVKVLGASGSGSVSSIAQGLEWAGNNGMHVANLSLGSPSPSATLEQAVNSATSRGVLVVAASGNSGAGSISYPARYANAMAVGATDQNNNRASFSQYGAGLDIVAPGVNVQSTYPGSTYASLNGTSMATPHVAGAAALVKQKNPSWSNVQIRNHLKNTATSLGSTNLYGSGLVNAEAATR
Method: as §1, with “Protease2 has the amino acid sequence shown in SEQ ID NO: 2 (variant of subtilisin 309). Protease3 has the amino acid sequence shown in SEQ ID NO: 3 (variant of subtilisin 309).” left out
as §2, §3

[5] = target: Protease3 (variant of subtilisin 309) (Lederbergia lenta, UniProt P29600, INS97E); test: Storage stability of Protease3 in liquid ADW detergent (residual protease activity, N,N-dimethylcasein hydrolysis); format: biochemical; conditions: Protease3, no inhibitor
Method: as §1, with “Protease2 has the amino acid sequence shown in SEQ ID NO: 2 (variant of subtilisin 309). Protease3 has the amino acid sequence shown in SEQ ID NO: 3 (variant of subtilisin 309).” left out
(§4) The peptide aldehyde hydrosulfite adduct described above was dissolved in 40% propylene glycol and water was added to make a 24% w/w solution of the adduct.
(§5) [formula] […] Protease2 and Protease3 were used in concentrations of 0.04 g active enzyme protein per gram of enzyme solution.
as §3

[6] = target: Protease2 (variant of subtilisin 309) (Lederbergia lenta, UniProt P29600, DUP96-96/S97D); test: Storage stability of Protease2 in liquid ADW detergent (residual protease activity, N,N-dimethylcasein hydrolysis); format: biochemical; conditions: Protease2, no inhibitor
Method: as §1, with “Protease2 has the amino acid sequence shown in SEQ ID NO: 2 (variant of subtilisin 309). Protease3 has the amino acid sequence shown in SEQ ID NO: 3 (variant of subtilisin 309).” left out
as §4, §5, §3, §2

[7] = target: T3, Protease1 (subtilisin 309) (Bacillus lentus); test: cell-based or functional assay
T3 chain: T2 sequence (P29600 1-269)

[8] = target: T4, Protease2 (variant of subtilisin 309) (Artificial sequence); test: cell-based or functional assay
T4 chain: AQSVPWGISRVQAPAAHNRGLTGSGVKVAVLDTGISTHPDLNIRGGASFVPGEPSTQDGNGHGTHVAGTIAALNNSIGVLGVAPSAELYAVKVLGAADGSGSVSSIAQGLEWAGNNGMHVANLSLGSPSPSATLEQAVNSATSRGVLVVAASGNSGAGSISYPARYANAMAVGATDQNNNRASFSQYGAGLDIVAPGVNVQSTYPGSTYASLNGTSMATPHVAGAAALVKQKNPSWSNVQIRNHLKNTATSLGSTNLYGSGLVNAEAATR

Sequence of Protease3 (variant of subtilisin 309) (P29600 other isoform, or with tags, fused parts or gaps INS97E): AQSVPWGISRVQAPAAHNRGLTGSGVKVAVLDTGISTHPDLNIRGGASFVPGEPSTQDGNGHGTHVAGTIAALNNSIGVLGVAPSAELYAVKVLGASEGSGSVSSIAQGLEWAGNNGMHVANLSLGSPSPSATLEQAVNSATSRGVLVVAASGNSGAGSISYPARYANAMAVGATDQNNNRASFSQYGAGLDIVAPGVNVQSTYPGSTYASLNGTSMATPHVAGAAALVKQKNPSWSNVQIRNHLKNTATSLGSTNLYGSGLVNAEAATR

## Moc-Val-Ala-Leu-H (Moc-Val-Ala-Leu-{aldehyde′}; reading uncertain; also: printed as Moc-Val-Ala-Leu-H) [peptide aldehyde, Moc is methoxycarbonyl]
[1]; Protease4 with 3.3 mg peptide aldehyde/100 g (mole ratio 3.2)
  Residual protease activity after two weeks at 37° C.: 57%

## CC(C(=O)O)N(CC(=O)O)CC(=O)O (stereo not drawn) [MGDA, methylglycinediacetic acid]
[2]
  Log KCa: 7

## O=C(O)CC(NCCNC(CC(=O)O)C(=O)O)C(=O)O (mixture of isomers) [EDDS, ethylenediaminedisuccinic acid]
[2]
  Log KCa: 4.6

## O=P(O)(O)CN(CP(=O)(O)O)CP(=O)(O)O [AMP, Amino-tris-(methylene-phosphonic acid)]
[2]
  Log KCa: 1.7

## O=C(O)CN(CCN(CC(=O)O)CC(=O)O)CC(=O)O [EDTA, Ethylenediaminetetraacetic acid]
[2]
  Log KCa: 10.7

## O=C(O)CC(O)(CC(=O)O)C(=O)O [Citric acid]
[2]
  Log KCa: 3.5

## O=C([O-])CC[C@@H](C(=O)[O-])N(CC(=O)[O-])CC(=O)[O-].[Na+].[Na+].[Na+].[Na+] [GLDA, L-glutamic acid N,N-diacetic acid tetra sodium salt]
[2]
  Log KCa: 5.2

## O=C(O)CC(NC(CC(=O)O)C(=O)O)C(=O)O (stereo not drawn) [IDS, iminodisuccinic acid]
[2]
  Log KCa: 5.2

## O=P(O)(O)OP(=O)(O)O [Pyrophosphate]
[2]
  Log KCa: 5

## CC(O)(P(=O)(O)O)P(=O)(O)O [HEDP, 1-Hydroxy Ethylidene-1,1-Diphosphonic Acid]
[2]
  Log KCa: 6

## O=C([O-])[O-].[Na+].[Na+] [Carbonate, sodium carbonate]
[2]
  Log KCa: 7.8

## O=P(O)(O)OP(=O)(O)OP(=O)(O)O [STPP, sodium tripolyphosphate]
[2]
  Log KCa: 5.36

## O=P(O)(O)CN(CCN(CP(=O)(O)O)CP(=O)(O)O)CCN(CP(=O)(O)O)CP(=O)(O)O [DTPMP, Diethylenetriamine Penta(Methylene Phosphonic acid)]
[2]
  Log KCa: 7.1

## O=P(O)(O)CN(CP(=O)(O)O)CP(=O)(O)O [NTMP, Nitrilo trimethylene phosphonic acid]
[2]
  Log KCa: 7.6

## O=C(O)CN(CC(=O)O)CC(=O)O [NTA, Nitrilotriacetic acid]
[2]
  Log KCa: 6.4

## Moc-Val-Ala-Leu-aldehyde (also: C-terminal aldehyde on Leu) [Moc-Val-Ala-Leu-H]
[3]
  Residual protease activity after two weeks at 37° C.: 57%

B1: Protease1: subtilisin protease, amino acid sequence SEQ ID NO: 1 (subtilisin 309) (protein, listed as Bacillus lentus)
chain: T2 sequence (P29600 1-269)
[4]
  Residual protease activity after two weeks at 37° C.: 25%

B2: Protease3: subtilisin protease, SEQ ID NO: 3 (variant of subtilisin 309) (protein)
chain: T4 chain with A97S, D98E
modifications: variant of SEQ ID NO 1
[5]; Detergent A (invention)
  Residual protease activity after two weeks at 37° C.: 6%
[5]; Detergent B (invention)
  Residual protease activity after two weeks at 37° C.: 44%
[5]; Detergent C (reference)
  Residual protease activity after two weeks at 37° C.: 74%

B3: Protease2: subtilisin protease, SEQ ID NO: 2 (variant of subtilisin 309) (protein)
chain: T4 chain
modifications: variant of SEQ ID NO 1
[6]; Detergent A (invention), Example 1
  Residual protease activity after two weeks at 37° C.: 1%
[6]; Detergent A, Example 2
  Residual protease activity after two weeks at 37° C.: 1%
[6]; Detergent B (invention), Example 1
  Residual protease activity after two weeks at 37° C.: 10%
[6]; Detergent C (reference), Example 1
  Residual protease activity after two weeks at 37° C.: 76%

B4: Protease4: subtilisin protease, SEQ ID NO: 4 (subtilisin BPN′) (protein)
chain: T1 chain
modifications: BPN′ variant
[1]; Protease4, no inhibitor
  Residual protease activity after two weeks at 37° C.: 5%

## Cbz-Gly-Ala-Tyr-aldehyde (also: C-terminal aldehyde on Tyr) [Cbz-Gly-Ala-Tyr-H]
[7]
  Residual protease activity after two weeks at 37° C.: 81%
[8]
  Residual protease activity after two weeks at 37° C.: 86%
